This note sets out measurements from US3950393A, “Aminobenzyl-amides and salts thereof” (Boehringer Ingelheim GmbH, priority 1973, dated 1976).

Where a name gives a salt, the structure may show the parent alone. Read-outs that look alike come from different tables or passages of the source. A value given as a limit tells only on which side of the number the result lay.

One data set has as its system guinea pigs. The data set is described as follows: Secretolytic (expectorant) effect in anesthetized guinea pigs after oral application. It counts as in vivo. To be noted: 8 mgm/kg oral, within 2 hours, 6-8 animals. The protocol: (§1) The expectorant activity was tested on anesthetized rabbits and guinea pigs after oral application of 8 mgm/kg of the test compound to 6-8 animals. The increase in secretion within 2 hours was calculated from the amounts of secretion before and after application of the substance [see Perry and Boyd in Pharmakol. exp. Therap. 73, 65 (1941)].

Another data set concerns white mice. Description: in vivo. The procedure: (§2) The acute toxicity of the test compounds was determined after a single application of 1000 or 2000 mgm/kg p.o., respectively, to 5 white mice each.
Another data set deals with cats. Description: Circulatory effect in cats under chloralose-urethane anesthesia after intravenous application. It counts as in vivo. To be noted: 2, 4 and 8 mgm/kg intravenous, 3 animals per dose. The protocol: The circulatory effect in cats was determined under chloralose-urethane anesthesia after intravenous application of 2,4 and 8 mgm/kg of the test compound (3 animals per dose).

The test system of another data set is ulcers. Description: Anti-ulcerogenic activity, acetic acid stomach ulcers, method of K. Takagi et al. It counts as in vivo, female rats. To be noted: three weeks with food. The protocol:
The inhibiting effect of the test compounds on the formation of ulcers was determined according to the method of K. Takagi et al [Jap. J. Pharmac. 19, 418 (1969)]. The abdominal cavity of anesthetized female rats having a body weight from 220 to 250 gm was opened and the stomach was exposed. Then, 0.05 ml of an aqueous 5% acetic acid solution was injected between the muscularis mucosae and submucosa of the stomach. Thereafter, the abdominal cavity was closed again. The ulcers formed in the mucosa after 3 to 5 days were treated for three weeks by admixing the test compound in question with the food at dosage levels of 50 and 100 mgm/kg (6 animals/dose). The control animals were fed with the pulverized food only.
After treatment for three weeks the animals were killed, the stomach was removed, and the size of the ulcers was determined by measurement of their length and width. The anti-ulcerogenic activity of the test compound was determined by the size of the ulcers comparing with the control values (100%): […]

The nature of a further data set: in vivo. The note with it: mouse, in vivo, po. The procedure:
as §2

The test system of the next data set is rabbits. The data set is described as follows: Secretolytic (expectorant) effect in anesthetized rabbits after oral application. It counts as in vivo. To be noted: 8 mgm/kg oral, within 2 hours, 6-8 animals. The protocol:
as §1

The mark [1] stands for this setting: single application, 5 white mice, read-out: Acute toxicity.

Turning to “2-amino-3-bromo-N-cyclohexyl-N-ethyl-3-fluoro-benzylamine hydrochloride”, in the data set with guinea pigs, the Increase in secretion stood at 100%. Moreover, the animals died in the data set with white mice (single 1000 mgm/kg p.o.) was 0 out of 5.

Regarding `CCOC(=O)c1cc(Br)c(N)c(CN(CC)CC)c1.Cl` [A, 2-amino-3-bromo-5-carbethoxy-N,N-diethyl-benzylamine hydrochloride], the Increase in secretion in the data set on guinea pigs turned out to be 90%. The Circulatory effect result in the data set on cats was “no change”. The figures for the “reduction of the ulcers compared with control values” in the data set with ulcers (peroral dosage of 50 mgm/kg) and in the data set on ulcers (peroral dosage of 100 mgm/kg) were 52% and 79%, respectively. Moreover, the LD50 in the data set “in vivo” (setting [1]) was greater than 2000 mg/kg. Further, the animals died in the data set with white mice (single 2000 mgm/kg p.o.) is 0 out of 5.

In turn, `CCN(Cc1cc(C(=O)O)cc(Br)c1N)C1CCCCC1.Cl` [B, 2-amino-3-bromo-5-carboxy-N-cyclohexyl-N-ethyl-benzylamine hydrochloride] yielded an Increase in secretion in the data set on guinea pigs of 81%. Further, in the data set on cats, the Circulatory effect entry is recorded as “no change”. In addition, the LD50 in “in vivo” (setting [1]) is greater than 1000 mg/kg. For the same compound, in the data set with white mice (single 1000 mgm/kg p.o.), the animals died is 0 out of 5.

In the data set on rabbits, `Cc1cc(Br)cc(CN2CCCCCC2)c1N` [D, N-(2-amino-5-bromo-3-methyl-benzyl)-hexamethyleneamine dihydrochloride] came in with an Increase in secretion of 72%. Moreover, the LD50 in the data set “in vivo” was greater than 1000 mg/kg. For the same compound, the animals died in the data set on white mice (single 1000 mgm/kg p.o.) is given as 0 out of 5.

`CC(C)(C)c1cc(N)c(CN2CCOCC2)cc1Br.Cl.Cl` [E, N-(2-amino-5-bromo-4-tert.butyl-benzyl)-morpholine dihydrochloride] returned an Increase in secretion in the data set with rabbits of 77%. Moreover, the LD50 in the data set “in vivo” (setting [1]) was greater than 1000 mg/kg. The animals died in the data set with white mice (single 1000 mgm/kg p.o.) was 0 out of 5.

Consider `CC(=O)c1cc(Br)c(N)c(CN(C)C)c1` [F, 5-acetyl-2-amino-3-bromo-N,N-dimethyl-benzylamine], for which the Increase in secretion with rabbits amounted to 75%. For the same compound, in “in vivo” (setting [1]), the LD50 was roughly 1000 mg/kg. In the data set on white mice (single 1000 mgm/kg p.o.), the animals died is reported as 2 out of 5.

For the compound `CN(C)Cc1cc(F)cc(Br)c1N.Cl` [G, 2-amino-3-bromo-N,N-dimethyl-5-fluoro-benzylamine hydrochloride], the Increase in secretion with guinea pigs was determined as 84%. Besides, the LD50 in the data set “in vivo” (setting [1]) is greater than 1000 mg/kg. In the data set with white mice (single 1000 mgm/kg p.o.), the animals died is given as 0 out of 5.
